Read-outs that look alike come from different tables or passages of the source.
Legend:
[1] = type: physicochemical; conditions: for Purity (area): HPLC
Experimental: The samples of crystalline forms A and D were stored in an opened bottle for one week under 25° C./60% RH and 40° C./75% RH conditions, respectively. The physical and chemical stability of the samples was detected by XRPD and HPLC.

[2] = Pressure stability testing (tableting at 10 kN); type: physicochemical; conditions: 10 kN pressure; for Adhesion percentage: (ML-MT)/ML×100%; for Tensile strength T: T=2H/πDt; for Crystalline form after pressing: XRPD of crushed sample; for Tablet diameter D / Tablet thickness t: after 24 h elastic recovery; for Adhesion amount: powder adhesive to the punch; for Hardness H: radial crushing strength
Experimental: 100 mg samples of crystalline forms A and D were respectively added to […] of round flat punch, and then pressed into circular tablets using 10 kN pressure. The loading mass (ML) and tablet mass (MT) were recorded, and then the formula ma=(ML-MT)/ML×100% was used to calculate the mass percentage (ma) of the powder adhesive to the punch; the pressed tablets were kept in a dryer for 24 h for elastic recovery. After elastic recovery, the diameter (D) and thickness (t) of the tablet were measured using a vernier caliper. The radial crushing strength (hardness, H) was measured using a tablet hardness tester, and the XRPD pattern of the crushed sample was also tested.

[3] = Hygroscopicity test (dynamic vapor sorption, DVS); type: physicochemical
Experimental: The mass change percentage of crystalline form A was tested using dynamic vapor sorption (DVS) under constant temperature conditions of 25° C. and various humidity conditions, with a humidity change of 30% RH to 95% RH to 0% RH to 95% RH.
Crystalline form A had good physical stability.

[4] = Grinding stability testing (XRPD); type: physicochemical; conditions: 50 mg manually ground
Experimental: 50 mg samples of crystalline form A and crystalline form D were manually ground, and then detected by XRPD.

[5] = previous studies, CN2021110940333; cited from earlier work
[6] = Competition experiment for crystalline forms A, C, and D in suspension; type: physicochemical; conditions: aw 0.2-1; stirring at room temperature, 8 days; XRPD
Experimental: The starting material obtained in step 1 of Example 1 was added to the corresponding volume of solvent, and then allowed to suspend under stirring at room temperature for 2 h. The suspension was filtered with a 0.4 μm PTFE filter membrane to obtain a saturated solution. About 3 mg samples of crystalline forms A, C, and D were separately weighed and transferred to HPLC vials, to which was added 1 mL of saturated solution, and then the mixture was allowed to suspend under stirring at room temperature. After 8 days, the suspension was filtered to obtain the solid, and the change in crystalline form was identified by XRPD analysis.

[7] = Stability of crystalline form G on heating and on exposure after opening the cover; type: physicochemical; conditions: cover opened and kept for 1 h
[8] = One week, 25° C./60% RH and 40° C./75% RH

## nor-ursodeoxycholic berberine salt [Crystalline form A]
[1]
  Change of crystal structure / crystalline form (physical stability): the crystal structure was not changed
  Purity change (chemical stability): not changed significantly
[1]; Initial
  Purity (area): 99.26%
[1]; One week, 25° C./60% RH
  Relative purity percentage (vs initial purity): 100.0%
  Purity (area): 99.24%
[1]; One week, 40° C./75% RH
  Relative purity percentage (vs initial purity): 100.0%
  Purity (area): 99.23%
[2]
  Tablet mass: 103.2 mg
  Adhesion percentage: 1.6%
  Tensile strength T: 2.38 MPa
  Crystalline form after pressing: remained unchanged
  Tablet diameter D: 6.02 mm
  Tablet thickness t: 2.90 mm
  Adhesion amount: 1.7 mg
  Hardness H: 65.37 N
[3]; DVS, 25° C., 80% RH
  Water adsorption rate: 8.7%
[3]; DVS, 25° C., after the relative humidity reached 10%
  Water absorption behaviour: slowly absorbed water
[3]; DVS, 25° C., relative humidity range of 0% to 10%
  Water absorption behaviour: rapidly absorbed water
[3]; XRPD after DVS
  Crystalline form before and after DVS testing: did not change
[4]
  Crystalline form after grinding: remained unchanged
  Crystallinity after grinding: the crystallinity decreased

## nor-ursodeoxycholic berberine salt
[5]
  Alanine aminotransferase (ALT): significantly reduce
  Alkaline phosphatase (ALP): significantly reduce
  Glutamic oxaloacetic transaminase (AST): significantly reduce
  Liver pathological damage (such as hepatic steatosis): significant improvement effect
  Therapeutic effect on fatty liver, liver fibrosis, and cirrhosis versus HTD1801: significantly better than that of HTD1801
  Therapeutic effect on fatty liver, liver fibrosis, and cirrhosis versus individual norUDCA and berberine hydrochloride: superior to the sum of the effects produced by individual norUDCA and berberine hydrochloride

## CC(CC(=O)[O-])C1CCC2C3C(O)CC4CC(O)CCC4(C)C3CCC12C.COc1ccc2cc3[n+](cc2c1OC)CCc1cc2c(cc1-3)OCO2 (stereo not drawn) [Crystalline form C, nor-ursodeoxycholic berberine salt]
[6]
  Solid form obtained after competition in suspension: transition to form A

## CC(CC(=O)[O-])C1CCC2C3C(O)CC4CC(O)CCC4(C)C3CCC12C.COc1ccc2cc3[n+](cc2c1OC)CCc1cc2c(cc1-3)OCO2 (stereo not drawn) [Crystalline form D, nor-ursodeoxycholic berberine salt]
[1]
  Change of crystal structure / crystalline form (physical stability): not obviously changed
[1]; Initial
  Purity (area): 98.61%
[1]; One week, 25° C./60% RH
  Purity decrease: 0.37%
  Relative purity percentage (vs initial purity): 99.63%
  Purity (area): 98.24%
[1]; [8]
  Crystallinity after storage: the crystallinity decreased
  Sample appearance after storage: turned dark brown
[1]; One week, 40° C./75% RH
  Purity decrease: 0.62%
  Relative purity percentage (vs initial purity): 99.37%
  Purity (area): 97.99%
[2]
  Tablet mass: 96.9 mg
  Adhesion percentage: 3.3%
  Tensile strength T: 1.69 MPa
  Crystalline form after pressing: remained unchanged
  Tablet diameter D: 6.02 mm
  Tablet thickness t: 2.90 mm
  Adhesion amount: 3.3 mg
  Hardness H: 46.31 N
[4]
  Crystalline form after grinding: transformed into amorphous

## CC(CC(=O)[O-])C1CCC2C3C(O)CC4CC(O)CCC4(C)C3CCC12C.COc1ccc2cc3[n+](cc2c1OC)CCc1cc2c(cc1-3)OCO2 (stereo not drawn) [Crystalline form G, nor-ursodeoxycholic berberine salt]
[7]
  Crystalline form after opening the cover: turned back into form A
